Values of other authors as cited in patent publication US7253172B2, “Dipeptidyl peptidase inhibitors for the treatment of diabetes” (Merck & Co., Inc., priority 2001, dated 2007).
One block for each molecule: values may come before it.

Tests used:
[1] = test system: cardiac allograft; settings: rats; doubled from day 7 to day 14
[2] = molecular target: T1, DP-IV (Homo sapiens, UniProt P27487)
T1 construct: GRF is rapidly degraded in plasma to GRF[3–44]

[3] = test system: hematopoiesis; settings: mouse, cyclophosphamide-induced neutropenia

T1 sequence (P27487 39-766 limits assumed): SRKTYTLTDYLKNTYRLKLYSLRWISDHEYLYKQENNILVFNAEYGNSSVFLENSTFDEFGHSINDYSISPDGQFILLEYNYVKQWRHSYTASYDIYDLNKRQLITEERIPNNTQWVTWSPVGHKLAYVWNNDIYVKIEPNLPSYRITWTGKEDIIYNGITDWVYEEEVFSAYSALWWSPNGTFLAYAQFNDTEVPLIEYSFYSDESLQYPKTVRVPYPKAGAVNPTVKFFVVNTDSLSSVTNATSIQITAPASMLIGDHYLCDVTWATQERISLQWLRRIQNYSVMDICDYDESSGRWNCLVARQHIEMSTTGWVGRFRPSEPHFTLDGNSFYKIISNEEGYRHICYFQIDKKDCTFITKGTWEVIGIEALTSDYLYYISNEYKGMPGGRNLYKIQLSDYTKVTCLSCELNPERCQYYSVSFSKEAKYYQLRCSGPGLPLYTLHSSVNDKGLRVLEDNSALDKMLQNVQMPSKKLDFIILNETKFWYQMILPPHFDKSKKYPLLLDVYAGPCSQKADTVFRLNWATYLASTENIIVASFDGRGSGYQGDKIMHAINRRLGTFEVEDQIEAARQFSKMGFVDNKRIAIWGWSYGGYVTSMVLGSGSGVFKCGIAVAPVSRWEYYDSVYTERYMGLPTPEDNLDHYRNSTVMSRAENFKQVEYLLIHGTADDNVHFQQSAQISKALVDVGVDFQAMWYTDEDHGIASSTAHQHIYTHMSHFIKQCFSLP

Molecule: CC(C)N1CCC(c2ccccc2)(c2ccccc2)CC1 [Prodipine, Pro-Pro-diphenyl-phosphonate]
cardiac allograft survival [1]: 14 day

degradation of GRF in plasma to GRF[3–44] [2]: prevented
Molecule: diprotin A

Molecule: CC(C)[C@H](N)C(=O)N1CCC[C@H]1B(O)O [Val-Boro-Pro]
hematopoiesis [3]: stimulates hematopoiesis
